Measurements published in patent US20060013804A1, “Modulation of stem cell differentiation by modulation of caspase-3 activity” (Ottawa Health Research Institute, priority 2002, published 2006).
“Also recorded” adds a separate entry of the source.

Legend:
[1] = test system: clonally-derived CD1 neurospheres; experiment: CD1 neurosphere differentiation with caspase inhibitor: immunocytochemistry and immunoblot of neural markers; assay type: cell-based, mouse; details: for nestin expression under differentiation conditions: early periods (48 h)
Procedure: Neurosphere culture: clonally-derived neurospheres were generated from the striatum of E14.5 CD1 murine embryos according to methods previously described (Reynolds, B. A., and Weiss, S. (1996) Dev Biol 175, 1-13). The neurospheres were maintained in NeuroCult Proliferation Medium (StemCell Technologies, Canada) supplemented with 20 ng/ml basic fibroblast growth factor (bFGF) as per manufacturer's instructions.
Neurospheres were sub-cultured no more than once per collection. The differentiation of neurospheres was initated by plating spheres on poly-L-ornithine coated plates in NeuroCult Differentiation Medium in the absence of bFGF, as per manufacturer's instructions. […] All cultures received fresh media and inhibitor every 24 h for the duration of the experiment. Neurospheres from caspase 3 null embryos (Fernando, P., et al., (2002) Proc Natl Acad Sci USA 99, 11025-11030) were cultured as described above.
Immunocytochemistry: Neurospheres were collected at selected time points, fixed in 4% paraformaldehyde and prepared for immunostaining as previously described (Fernando, P., et al., (2002) Proc Natl Acad Sci USA 99, 11025-11030)). The primary antibody concentrations for anti-nestin, -GFAP, -MBP and -active caspase 3 (BioVision, USA) were titrated on wildtype CD1 neurospheres prior to their experimental use. These antibodies were visualized by counterstaining with either FITC or Cy3 conjugated secondary antibodies (Chemicon USA). Nuclei were localized with 4′,6-Diamidino-2 phenylindole (DAPI) (Sigma, USA). Cells were visualized using either an Axiovert 100 for transmission microscopy or Axioplan 2 for fluorescent microscopy (Zeiss, Germany) at selected magnifications. Captured images were processed using AxioVision Viewer 3.0 software.
Immunoblot Assays: Immunoblot analyses were performed as previously described (Fernando, P., et al., (2002) Proc Natl Acad Sci USA 99, 11025-11030). All samples were processed at 4° C. to maintain protein integrity. To generate neurosphere cell extracts, cultured neurospheres were collected at the indicated time points and solubilized in modified RIPA buffer containing protease and phosphatase inhibitors. Cells were sheared 4-5 times through a 21 gauge needle and mixed by 360° rotation at 4° C. for 30 minutes. Nestin 3 (AbCam, UK) was detected following the separation of total cellular proteins through a 6% acrylamide gel and Western transfer. Antibodies against neuronal class III […] and GFAP (AbCam, USA), active caspase 3 (BioVision, USA), 2′3′ cyclic nucleotide 3′ phosphohydrolase (CNPase) (Chemicon, USA) and p38α (Santa Cruz, USA) were used to detect proteins following separation by 10% polyacrylamide electrophoresis and Western transfer. In some instances, sample aliquots were sonicated following cell lysis in order to detect total cellular poly-ADP ribose polymerase (PARP) (BioVison, USA). Soluble PARP was assayed from unsonicated samples. Protein bands from Western blot assays were quantitated using Scion Image (Scion Corporation, USA).

p38α = experiment: Immunoprecipitation/kinase assay of p38α from neurospheres; assay type: cell-based, mouse; details: differentiation media under caspase 3 inhibition
Procedure: Immunoprecipitation/Kinase activity assays: Immunoprecipitation/kinase analyses were performed as previously described (Fernando, P., et al., (2002) Proc Natl Acad Sci USA 99, 11025-11030). Cellular lysates from neurospheres were generated as described above. Antibodies against apoptotic signal-regulating kinase 1 (ASK1) (Upstate, USA), p21 activated kinase 1 (PAK1) (Cell Signaling Technologies, USA), and p38 MAPK (Santa Cruz, USA) were used to immunoprecipitate respective proteins. Samples were mixed with Protein G-sepharose beads for 1 h, washed and then mixed with kinase assay buffer containing myelin basic protein (MBP) and γ-32P[ATP]. Samples were reacted at 30° C. for 30 min and separated using SDS-PAGE. In some instances, samples were transferred to PVDF membrane following electrophoresis. To quantify kinase activities, MBP acrylamide bands were excised and solubilized in scintillation fluid prior to 32P-liquid scintillation analyses. In all cases, an activated recombinant mitogen activated protein kinase activated protein-2 (MAPKAP kinase-2) (Upstate, USA) was used as an internal control for liquid scintillation analyses.
ASK1 activity was reduced when cells were treated with differentiation media containing z-DEVD (DEVD condition) compared to differentiation media alone (DMSO condition) (FIG. 19c,d). Both PAK1 and ASK1 have been linked to the downstream activity of p38 MAPK. […]

[2] = 2.0 μM inhibitor, differentiation media 48 h

- nestin expression under differentiation conditions ([1]; 2.0 μM inhibitor, differentiation media, listed as DEVD): remained elevated
- nestin after extended period in differentiation media ([1]; 4 d, immunoblot): a decrease in nestin was observed
- p38α kinase activity (p38α): very low levels of p38α kinase activity
Compound: COC(=O)CC[C@H](NC(=O)[C@H](CC(=O)OC)NC(=O)OCc1ccccc1)C(=O)N[C@H](C(=O)N[C@@H](CC(=O)OC)C(=O)CF)C(C)C [z-DEVD.fmk]
- GFAP expression [1, 2]: significant decrease; also recorded: fail to express the astrocyte marker protein GFAP
- MBP expression [1, 2]: significant decrease; also recorded: fail to express the oligodendrocyte marker protein MBP
- nestin expression under differentiation conditions ([1]; 2.0 μM inhibitor, differentiation media): sustained expression of nestin; also recorded: remain in an early progenitor state and express nestin
- nestin expression under differentiation conditions ([1]; 2.0 μM inhibitor, differentiation media, listed as z-DEVD): remained elevated during the early periods of differentiation
- nestin expression under growth conditions ([1]; 2.0 μM inhibitor, growth conditions): did not affect nestin expression; also recorded: express nestin
- β-III tubulin level after 5 d ([1]; 5 d differentiation, immunoblot): very low level of β-III tubulin was detectable
- β-III tubulin (Tuj-1) accumulation ([1]; differentiation media, immunoblot, vs DMSO): did not increase; also recorded: lower in caspase 3 inhibited samples relative to control
